Test system: OVCAR-5 complex spheroid (HUVEC/MSC), viability % T/C
Experiment: Anticancer human tumor OVCAR-5 cell line growth inhibition [Asc];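 note: spheroids exposed to agents for 7 days before readout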;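 for viability, T/C: 100% = DMSO vehicle-treated wells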
Settings: for IC50: curve of first compound; for viability, T/C: stronger effect = lower value; active = viability on the fitted dose curve at most 10% of control; inactive = the rest
Protocol: Multicellular complex tumor spheroid response to apoptosis pathway targeting inhibitors Alrizomadlin, Pelcitoclax, and Dasminapant in combination with a variety of drugs and investigational agents in selected tumor cell lines
The MDM2 inhibitor alrizomadlin, the Bcl-2/Bcl-xL inhibitor pelcitoclax, and the IAPs inhibitor dasminapant were evaluated both individually and in combination with standard of care and investigational anticancer small molecules within a complex spheroid model of solid tumors. . Complex spheroids include a stromal component modeled by human endothelial cells (HUVEC) and fibroblasts modeled by human mesenchymal stem cells (MSCs). The concentration ranges selected for each drug and investigational agent were based upon clinically achievable concentrations if the clinical Cmax of the agent was known.
Compounds. The drugs and investigational agents: alrizomadlin (APG-115; NSC831270), pelcitoclax (APG-1252; NSC835773), dasminapant (APG-1387;NSC834197), TAK-243 (NSC785004), copanlisib (NSC809693), olaparib (NSC753686), talazoparib (NSC767125), cobimetinib (NSC 768068), eltanexor (KPT-8602, NSC 794443), abemaciclib (NSC 768073), sotorasib (NSC818433), adagrasib (NSC 831453), MRTX-1133 (NSC 836407), Iadademestat (ORY1001, NSC 806812), and RMC-4630 (NSC839698), were obtained from the NCI Developmental Therapeutics Program Chemical Repository. The FDA-approved anticancer drug set is available from the Developmental Therapeutics Program at https://dtp.cancer.gov/organization/dscb/obtaining/available plates.htm. […] The stock solutions were prepared in dimethyl sulfoxide (DMSO, Sigma-Aldrich, St. Louis, MO, cat. D2650) at 800-fold the tested concentration and stored at -70 degrees C prior to their use. All drugs and investigational agents were tested over a range starting from a high concentration at or near the clinical Cmax and decreasing in half-log increments. If the clinical Cmax for an agent had not been determined, the highest concentration tested was 10 microM.
The patient-derived cancer (PDC) cell lines include five colon adenocarcinomas: 186277-243-T-J2-PDC, 616215-338-R-J1-PDC, 439559-082-T-J2-PDC, 463943-066-T-J2-PDC, and 519858-162-T-J1-PDC; three pancreatic carcinomas: 323965-272-R-J2-PDC, 521955-158-R6-J3-PDC, and 521955-158-R2-J5-PDC; two uterine sarcomas: 327498-152-R-J2-PDC and 993429-296-R-J1-PDC; two rhabdomyosarcomas: 755483-174-R-J1-PDC and 772245-204-R-J1-PDC; two soft tissue sarcomas: 126254-015-R-J1-PDC and 494315-158-R-J1-PDC; two malignant fibrous histiocytomas: 317291-083-R-J1-PDC and 596521-263-R-J1-PDC; two breast carcinomas: 171881-019-R-J1-PDC and 885512-296-R-J2-PDC; and one ovarian carcinoma: 6556581-035-R-J-PDC were obtained from the NCI PDMR, (https://pdmr.cancer.gov). The established cell lines HSSY-2 synovial sarcoma (RRID:CVCL 8719), SYO-1 synovial sarcoma (RRID:CVCL_7146), MPNST malignant peripheral neural sheath tumor were obtained from the Sloan Kettering Institute. The following established cell lines were purchased from the American Type Culture Collection (ATCC, Manassas, VA), Sor the received from the NCI repository:, PANC-1 pancreatic carcinoma (CRL-1469, RRID:CVCL_0480), OVCAR-5 ovarian carcinoma (RRID:CVCL_1628), OVCAR-8 ovarian carcinoma (RRID:CVCL_1629), , MCF-7 breast carcinoma (CRL-12584, RRID:CVCL_0031), MDA-MB-231 breast carcinoma (CRL-12532, RRID:CVCL_0062), NCI-H1876 small cell lung carcinoma (CRL-5902, RRID:CVCL_1503), NCI-H510A small cell lung carcinoma (HTB-184, RRID:CVCL_1565), NCI-H1417 (CRL-5869, RRID:CVCL_1469), and NCI-H196 small cell lung carcinoma (CRL-5823, RRID:CVCL_1509). Dr. Peter Houghton (Greehey Children's Cancer Research Institute, University of Texas Health Science Center, San Antonio, TX) provided Rh-18 rhabdomyosarcoma (RRID:CVCL_1659). Pooled donor human umbilical vein endothelial cells (HUVEC, Lonza, cat. CC-2519) and human mesenchymal stem cells (hMSC, Lonza, cat. PT-2501) were purchased from Lonza (Walkersville, MD).
Cell Culture. […]

[1] = second compound 0.03 µM, first compound 0.0316 µM
[2] = second compound 0.03 µM, first compound 0.1 µM
[3] = second compound 0.03 µM, first compound 0.316 µM
[4] = second compound 0.03 µM, first compound 1 µM
[5] = second compound 0.0949 µM, first compound 0.0316 µM
[6] = second compound 0.0949 µM, first compound 0.1 µM
[7] = second compound 0.0949 µM, first compound 0.316 µM
[8] = second compound 0.0949 µM, first compound 1 µM
[9] = second compound 0.3 µM, first compound 0.0316 µM
[10] = second compound 0.3 µM, first compound 0.1 µM
[11] = second compound 0.3 µM, first compound 0.316 µM
[12] = second compound 0.3 µM, first compound 1 µM
[13] = second compound 0.949 µM, first compound 0.0316 µM
[14] = second compound 0.949 µM, first compound 0.1 µM
[15] = second compound 0.949 µM, first compound 0.316 µM
[16] = second compound 0.949 µM, first compound 1 µM
[17] = second compound 3 µM, first compound 0.0316 µM
[18] = second compound 3 µM, first compound 0.1 µM
[19] = second compound 3 µM, first compound 0.316 µM
[20] = second compound 3 µM, first compound 1 µM

O=C(c1cc(Cc2n[nH]c(=O)c3ccccc23)ccc1F)N1CCN(C(=O)C2CC2)CC1 + CCN1C(C(=O)NC23CCC(C(=O)O)(CC2)CC3)C(c2cccc(Cl)c2F)C2(C(=O)Nc3cc(Cl)ccc32)C12CCCCC2
> 10000 nM: IC50 (second compound 0.03 µM) | IC50 (second compound 0.0949 µM) | IC50 (second compound 0.3 µM) | IC50 (second compound 0.949 µM) | IC50 (second compound 3 µM)
inactive: viability, T/C [1] 96% | viability, T/C [2] 104% | viability, T/C [3] 83.9% | viability, T/C [4] 86.8% | viability, T/C (second compound 0.03 µM, first compound 3.16 µM) 92.5% | viability, T/C (second compound 0.03 µM, first compound 10 µM) 83.3% | viability, T/C [5] 101% | viability, T/C [6] 110% | viability, T/C [7] 93.8% | viability, T/C [8] 85.8% | viability, T/C (second compound 0.0949 µM, first compound 3.16 µM) 85.4% | viability, T/C (second compound 0.0949 µM, first compound 10 µM) 85% | viability, T/C [9] 101% | viability, T/C [10] 97.2% | viability, T/C [11] 97.7% | viability, T/C [12] 75.1% | viability, T/C (second compound 0.3 µM, first compound 3.16 µM) 86.3% | viability, T/C (second compound 0.3 µM, first compound 10 µM) 82.7% | viability, T/C [13] 106% | viability, T/C [14] 105% | viability, T/C [15] 102% | viability, T/C [16] 92% | viability, T/C (second compound 0.949 µM, first compound 3.16 µM) 89% | viability, T/C (second compound 0.949 µM, first compound 10 µM) 97.6% | viability, T/C [17] 104% | viability, T/C [18] 115% | viability, T/C [19] 111% | viability, T/C [20] 96.5% | viability, T/C (second compound 3 µM, first compound 3.16 µM) 88.9% | viability, T/C (second compound 3 µM, first compound 10 µM) 91.5%

O=C(c1ccc(F)c(F)c1Nc1ccc(I)cc1F)N1CC(O)([C@@H]2CCCCN2)C1 + CCN1C(C(=O)NC23CCC(C(=O)O)(CC2)CC3)C(c2cccc(Cl)c2F)C2(C(=O)Nc3cc(Cl)ccc32)C12CCCCC2
56.2 nM: IC50 (second compound 3 µM)
inactive: viability, T/C (second compound 0.03 µM, first compound 0.00316 µM) 90.3% | viability, T/C (second compound 0.03 µM, first compound 0.01 µM) 88.7% | viability, T/C [1] 68.4% | viability, T/C [2] 49.4% | viability, T/C [3] 41.6% | viability, T/C [4] 34.6% | viability, T/C (second compound 0.0949 µM, first compound 0.00316 µM) 99.7% | viability, T/C (second compound 0.0949 µM, first compound 0.01 µM) 92.9% | viability, T/C [5] 66.8% | viability, T/C [6] 45.5% | viability, T/C [7] 42.9% | viability, T/C [8] 32.1% | viability, T/C (second compound 0.3 µM, first compound 0.00316 µM) 94.9% | viability, T/C (second compound 0.3 µM, first compound 0.01 µM) 87.8% | viability, T/C [9] 66.3% | viability, T/C [10] 45.4% | viability, T/C [11] 43.9% | viability, T/C [12] 33.2% | viability, T/C (second compound 0.949 µM, first compound 0.00316 µM) 87.3% | viability, T/C (second compound 0.949 µM, first compound 0.01 µM) 86.3% | viability, T/C [13] 64.2% | viability, T/C [14] 46.8% | viability, T/C [15] 40% | viability, T/C [16] 32% | viability, T/C (second compound 3 µM, first compound 0.00316 µM) 97.4% | viability, T/C (second compound 3 µM, first compound 0.01 µM) 89.2% | viability, T/C [17] 61.5% | viability, T/C [18] 37.6% | viability, T/C [19] 37% | viability, T/C [20] 28.8%
96.2 nM: IC50 (second compound 0.03 µM)
81.4 nM: IC50 (second compound 0.0949 µM)
83.6 nM: IC50 (second compound 0.3 µM)
81.6 nM: IC50 (second compound 0.949 µM)
